Experimental findings from ChEMBL document CHEMBL1201862, “PubChem BioAssay data set” (2004) are described below.

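Compound exposure: 48 hours, 5 concentrations, 96-well plates. GI50 marks 50% less growth.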 Activity calls are given as the source filed them. Rule as the data show it: active = GI50 up to about 1.1 µM and inactive = higher.

Test systems include LOX IMVI; SK-MEL-5; KM12; TK-10; RXF 393; UACC-62; IGROV-1; NCI-H460; RPMI-8226; SNB-75; SK-MEL-28; OVCAR-5; HOP-62; SN12C; 786-0; OVCAR-3; MDA-N; HCC 2998; CCRF-CEM; SF-295.
Common to all, as to assay: inhibition of tumour cell growth, NCI panel, 48 h

In the case of `CCOC(=O)c1ccc(-c2cccs2)n1C`, the GI50 with LOX IMVI was > 77.8 µM (inactive); in the test on SK-MEL-5, 33.7 µM (inactive); in the test on KM12, > 100 µM (inactive); in the test on TK-10, > 100 µM (inactive); in the test with RXF 393, > 66.5 µM (inactive); with UACC-62, 58.5 µM (inactive). The GI50 in the test with IGROV-1 was > 80.7 µM (inactive); in the test with NCI-H460, > 100 µM (inactive); in the test on RPMI-8226, 84.5 µM (inactive); in the test on SNB-75 it was > 100 µM (inactive); with SK-MEL-28 it was > 100 µM (inactive); with OVCAR-5, > 100 µM (inactive). Also, the GI50 with HOP-62 was > 55.5 µM (inactive); in the test on SN12C, > 100 µM (inactive); in the test on 786-0, > 100 µM (inactive); in the test on OVCAR-3 it was > 100 µM (inactive); in the test with MDA-N it was > 96.2 µM (inactive); with HCC 2998, > 100 µM (inactive). The GI50 is 71.8 µM (inactive) in the test on CCRF-CEM and > 95.3 µM (inactive) in the test on SF-295.
As to `CC(=O)N(C)C(C(=O)N1CC(C)CC1C(=O)N(C)C1C(=O)NC(CC(C)C)C(=O)N2CC(C)CC2C(=O)NC(CC(C)C)C(=O)N(C)C(C(C)C)C(=O)N2CCCC2C(=O)N(C)C(CC(C)C)C(=O)NCC(=O)OC1C)C(C)C` (stereo not given), the GI50 in the test with LOX IMVI, in the test with SK-MEL-5, with KM12, in the test on TK-10, in the test with RXF 393 and with UACC-62 was > 100 µM (inactive) throughout. Also, the GI50 was 72.1 µM (inactive) in the test on IGROV-1; > 100 µM (inactive) in the test with NCI-H460; > 100 µM (inactive) with RPMI-8226; > 100 µM (inactive) in the test with SNB-75; > 100 µM (inactive) in the test on SK-MEL-28; > 100 µM (inactive) in the test on OVCAR-5. Also, the GI50 with HOP-62, in the test on SN12C, in the test on 786-0, in the test on OVCAR-3, in the test on MDA-N and in the test on HCC 2998 was > 100 µM (inactive) each time. Also, the GI50 in the test with CCRF-CEM and in the test with SF-295 was > 100 µM (inactive) throughout.
As to `CCOC(=O)N(Cc1cccs1)c1cc(OC)c(OC)c(OC)c1`, the GI50 with LOX IMVI was 45.2 µM (inactive); with SK-MEL-5, 41.7 µM (inactive); in the test on KM12 it was 47.5 µM (inactive); with TK-10 it was > 100 µM (inactive); in the test with RXF 393, 83 µM (inactive); in the test with UACC-62, 40 µM (inactive). Besides, the GI50 was 17 µM (inactive) in the test on IGROV-1; 51.1 µM (inactive) with NCI-H460; 25.8 µM (inactive) in the test on RPMI-8226; 49.4 µM (inactive) with SNB-75; > 100 µM (inactive) in the test with SK-MEL-28; > 100 µM (inactive) with OVCAR-5. Moreover, the GI50 is > 100 µM (inactive) in the test on HOP-62; > 100 µM (inactive) with SN12C; > 100 µM (inactive) in the test with 786-0; 53.8 µM (inactive) with OVCAR-3; 28.9 µM (inactive) in the test on MDA-N; > 100 µM (inactive) in the test on HCC 2998. The results for the GI50 in the test with CCRF-CEM and with SF-295 were 41 µM (inactive) and > 100 µM (inactive), respectively.
Regarding `C=C1C(=O)O[C@H]2C1C[C@@H](O)/C(C)=C/CC[C@@]1(C)O[C@H]21` (stereo not given in full), the GI50 in the test with LOX IMVI was 9.16 µM (inactive); with SK-MEL-5 it was 16.1 µM (inactive); in the test on KM12, > 100 µM (inactive); in the test with TK-10, 12 µM (inactive); with RXF 393, 7.62 µM (inactive); in the test with UACC-62, 24.7 µM (inactive). Also, the GI50 is 12.7 µM (inactive) in the test on IGROV-1; 22.4 µM (inactive) in the test with NCI-H460; 4.76 µM (inactive) in the test on RPMI-8226; 16.4 µM (inactive) with SNB-75; 15.2 µM (inactive) with SK-MEL-28; > 39.4 µM (inactive) with OVCAR-5. In addition, the GI50 is > 59.6 µM (inactive) in the test on HOP-62; 29.2 µM (inactive) in the test on SN12C; 10.5 µM (inactive) in the test on 786-0; 3.27 µM (inactive) with OVCAR-3; 10.3 µM (inactive) in the test on MDA-N; 33.1 µM (inactive) in the test with HCC 2998. The GI50 is 3.17 µM (inactive) in the test with CCRF-CEM and > 55.1 µM (inactive) in the test with SF-295.
Take `O=C(N/N=C\c1ccc([N+](=O)[O-])cc1)Nc1ccc2ccccc2c1`: the GI50 in the test on LOX IMVI is 69.7 µM (inactive); in the test with SK-MEL-5 it was 77.3 µM (inactive); with KM12 it was 23.3 µM (inactive); in the test with TK-10, 37.5 µM (inactive); with RXF 393 it was > 100 µM (inactive); in the test with UACC-62, 28.1 µM (inactive). For the same compound, the GI50 in the test with IGROV-1 is 26.1 µM (inactive); in the test on NCI-H460, 18.5 µM (inactive); in the test with RPMI-8226, 52.8 µM (inactive); in the test on SNB-75 it was 27.2 µM (inactive); in the test on SK-MEL-28, 46.5 µM (inactive); in the test on OVCAR-5 it was 34.8 µM (inactive). Further, the GI50 in the test with HOP-62 is 22.2 µM (inactive); in the test with SN12C, 45.5 µM (inactive); in the test on 786-0, 17.2 µM (inactive); in the test with OVCAR-3 it was > 100 µM (inactive); in the test on MDA-N, 40.7 µM (inactive); in the test on HCC 2998 it was 25.4 µM (inactive). The GI50 with CCRF-CEM is 35.3 µM (inactive); with SF-295, 49.4 µM (inactive).
With `COc1ccc(C2=CN3CCC[C@H]3C=C2c2cc(O)c(OC)c(OC)c2)cc1OC`, the GI50 in the test with LOX IMVI is 0.00163 µM (active); in the test with SK-MEL-5, 0.0038 µM (active); in the test on KM12 it was 0.00337 µM (active); in the test with TK-10, 0.00859 µM (active); with RXF 393 it was 0.00424 µM (active); in the test on UACC-62, 0.00405 µM (active). Also, the GI50 with IGROV-1 is 0.0104 µM (active); in the test with NCI-H460, 0.00316 µM (active); with RPMI-8226 it was 0.00519 µM (active); with SNB-75, 0.00227 µM (active); with SK-MEL-28 it was 0.0045 µM (active); with OVCAR-5, 0.00561 µM (active). The GI50 is 0.0065 µM (active) with HOP-62; 0.00403 µM (active) in the test on SN12C; 0.00371 µM (active) with 786-0; 0.00615 µM (active) in the test on OVCAR-3; 0.00337 µM (active) in the test on MDA-N; 0.00482 µM (active) in the test with HCC 2998. In addition, the GI50 in the test on CCRF-CEM is 0.0033 µM (active); in the test with SF-295, 0.00446 µM (active).
`O=[N+]([O-])c1cccc2nc3ccccc3c(NCCCn3ccnc3[N+](=O)[O-])c12`: the GI50 is 0.0158 µM (active) with LOX IMVI; < 0.0001 µM (active) in the test on SK-MEL-5; 0.000114 µM (active) in the test with KM12; 0.00367 µM (active) with TK-10; 0.000139 µM (active) in the test on RXF 393; 0.000959 µM (active) in the test on UACC-62. For the same compound, the GI50 with IGROV-1 was 0.00389 µM (active); with NCI-H460, < 0.0001 µM (active); in the test with RPMI-8226, < 0.0001 µM (active); in the test with SNB-75, 0.0137 µM (active); in the test on SK-MEL-28 it was 0.00189 µM (active); in the test with OVCAR-5, 0.00017 µM (active). Further, the GI50 with HOP-62 is 0.000785 µM (active); with SN12C, 0.000282 µM (active); in the test with 786-0 it was 0.000175 µM (active); with OVCAR-3 it was 0.00309 µM (active); in the test on MDA-N it was < 0.0001 µM (active); in the test on HCC 2998 it was 0.000156 µM (active). The GI50 in the test with CCRF-CEM is 0.00574 µM (active); in the test on SF-295, 0.0117 µM (active).
As for `O=c1c2nn3c(=O)n(-c4ccccc4)c(=O)c3nn2c(=O)n1-c1ccccc1`, the GI50 with LOX IMVI, in the test with SK-MEL-5, in the test with KM12, in the test on TK-10, in the test with RXF 393 and with UACC-62 was > 100 µM (inactive) each time. Besides, the GI50 was > 100 µM (inactive) with IGROV-1; > 100 µM (inactive) in the test with NCI-H460; > 100 µM (inactive) in the test on RPMI-8226; 81.3 µM (inactive) in the test on SNB-75; > 100 µM (inactive) in the test with SK-MEL-28; > 100 µM (inactive) with OVCAR-5. Besides, the GI50 in the test with HOP-62, in the test with SN12C, in the test with 786-0, with OVCAR-3, in the test with MDA-N and in the test on HCC 2998 was > 100 µM (inactive) throughout. The GI50 in the test with CCRF-CEM was 56 µM (inactive); in the test on SF-295, 54.1 µM (inactive).
Take `COc1ccc(/C(Br)=C2\OC(=O)c3ccccc32)cc1`: the GI50 in the test with LOX IMVI, in the test on SK-MEL-5, in the test on KM12, with TK-10, with RXF 393 and in the test on UACC-62 was > 10 µM (inactive) throughout. The GI50 with IGROV-1, with NCI-H460, with RPMI-8226, in the test with SNB-75, in the test with SK-MEL-28 and in the test on OVCAR-5 was > 10 µM (inactive) throughout. In addition, the GI50 in the test with HOP-62, in the test on SN12C, with 786-0, with OVCAR-3, in the test with MDA-N and in the test on HCC 2998 was > 10 µM (inactive) in each case. Besides, the GI50 in the test on CCRF-CEM and in the test on SF-295 was > 10 µM (inactive) each time.
In the case of `COc1cc(-c2cn(S(=O)(=O)c3ccc(C)cc3)c3ccccc23)nc(-c2cn(S(=O)(=O)c3ccc(C)cc3)c3ccccc23)n1`, the GI50 was 0.6 µM (active) in the test on LOX IMVI; 0.566 µM (active) with SK-MEL-5; 0.438 µM (active) in the test with KM12; 8.22 µM (inactive) in the test on TK-10; 0.372 µM (active) in the test with RXF 393; 0.632 µM (active) with UACC-62. In addition, the GI50 was 0.728 µM (active) in the test on IGROV-1; 0.388 µM (active) with NCI-H460; 0.375 µM (active) with RPMI-8226; 4.42 µM (inactive) in the test on SNB-75; 23.3 µM (inactive) in the test with SK-MEL-28; 1.13 µM (inactive) with OVCAR-5. For the same compound, the GI50 was 1.84 µM (inactive) in the test with HOP-62; 1.85 µM (inactive) in the test with SN12C; 1.35 µM (inactive) with 786-0; 0.586 µM (active) in the test on OVCAR-3; 0.441 µM (active) in the test with MDA-N; 0.516 µM (active) with HCC 2998. Also, the figures for the GI50 in the test on CCRF-CEM and in the test with SF-295 were 12.2 µM (inactive) and 0.432 µM (active), respectively.
